Measured values: patent US9763911B2, “Prostacyclin compositions for regulation of fracture repair and bone formation” (MAYO FOUNDATION FOR MEDICAL EDUCATION AND RESEARCH, priority 2013, dated 2017)

What was measured:
[1] = test system: β-catenin in KO OC clone 8 cells; assay: Activated β-catenin protein in Sost KO clonal osteocytes treated with Wnt inhibitor (immunoblot); assay type: cell-based, mouse; settings: KO OC 8 cells, treatment for 48 hours, vs vehicle, P<0.05 (FIG. 7A)
Protocol: (§1) FIGS. 7A and 7B show inhibition of Wnt secretion with C-59 reduces intra-cellular activated β-catenin concentrations and 6-keto PGF1α concentrations. […] KO OC clone 8 cells were treated with a Wnt inhibitor, C-59 (2-(4-(2-methylpyridin-4-yl)phenyl)-N-(4(pyridine-3-yl)phenyl)acetamide) to assess the functional importance of β-catenin signaling in sclerostin-mediated increases in PGI2 synthesis.
Wells in a 6-well collagen treated plate were seeded with 0.2×10^6 sclerostin knock-out osteocytes (Clone KO8). After 48 hours, normal growth medium was removed, and cells were rinsed with PBS. Serum-free media was then added (α-MEM, 1% P/S) to the osteocytes as was well as either 100 nM of the small molecule Wnt inhibitor, C59 (2-(4-(2-methylpyridin-4-yl)phenyl)-N-(4-(pyridine-3-yl)phenyl) acetamide), or a vehicle control. After a 48 hour incubation, media was harvested from both vehicle and experimental wells and assayed for 6-keto prostaglandin F1α.
Cell lysates from 6- or 12-well plates were prepared by scraping cells in lysis buffer (0.1% SDS, 150 mM NaCl, 2 mM sodium vanadate, 0.5% sodium deoxycholate, 1% NP-40 50 mM Tris pH 8.2, 1 mM EDTA with one mini-complete protease inhibitor cocktail EDTA-free tab (Roche Diagnostics, Indianapolis, Ind.)) per 7 ml lysis solution or by direct addition of 1×SDS sample containing 5 mM EDTA and protease inhibitor as above. […]

[2] = test system: 6-keto PGF1α (PGI2 synthesis) in KO OC clone 8 cells; assay: 6-keto PGF1α in culture medium of treated Sost KO clonal osteocytes (EIA); assay type: cell-based, mouse; settings: 100 nM C59, 48 h, vehicle 274.964±6.006 pg/mL, P=0.012 (FIG. 7B)
Protocol: as §1
All prostaglandin metabolite measurements were performed by enzyme immunoassay (EIA) using kits from Cayman Chemical (Ann Arbor, Mich.). 6-Keto prostaglandin Flα (Catalog Number 515211), prostaglandin E2 (Catalog Number 514010), Prostaglandin E Metabolite (Catalog Number 514531), prostaglandin F2α (Catalog Number 516011), prostaglandin D2 (Catalog Number 512031), and thromboxane B2 (Catalog Number 519031) were all performed according to kit instructions. Culture medium was diluted 1:2 in supplied buffer for each metabolite measurement, solubilized bone proteins were diluted 1:100 in supplied buffer for each metabolite measurement, and urine was diluted 1:500 in supplied buffer for each metabolite measurement.
Wells in a 6-well collagen treated plate were seeded with 0.2×10^6 sclerostin knock-out osteocytes (Clone KO8). After 48 hours, normal growth medium was removed, and cells were rinsed with PBS. […]

Cc1cc(-c2ccc(CC(=O)Nc3ccc(-c4cccnc4)cc3)cc2)ccn1 [C59, 2-(4-(2-methylpyridin-4-yl)phenyl)-N-(4(pyridine-3-yl)phenyl)acetamide]
β-catenin protein concentration in cells [1]: statistically significant decrease
6-keto PGF1α in culture medium [2]: 536.409 ± 60.690 pg/mL
